Test results reported in patent publication EP0563386A1, “ANTICANCER COMPOSITION AND COMPOUND” (NIPPON SHINYAKU COMPANY, LIMITED, priority 1990, dated 1992).

How the values were obtained:
MDCK cells = experiment: Inhibition of uptake of 5-FU in MDCK cells (Test Example 4); assay type: cell-based; conditions: Canis lupus familiaris, 3H-5FU uptake versus control, harvest time (1, 3 or 5 hours) not given; for inhibition at 100 µM: 10⁻⁴ M; for inhibition at 10 µM: 10⁻⁵ M; for inhibition at 1 µM: 10⁻⁶ M
Procedure: In the assay of inhibitory activity against the 5-FU uptake of MDCK cells, the anticancer adjuvant activity of the test compound can be estimated based on the inhibitory effect on the uptake of a known anticancer drug.
The inhibitory effect of the compound of this invention on the uptake of 5-FU in MDCK cells was investigated. MDCK cells were seeded on a 24-well culture plate. When the cells became confluent, the test compound (10⁻⁶ - 10⁻⁴ M) and 3H-5FU ([…]) were simultaneously added to the medium and 1, 3 and 5 hours later, cells were harvested to determine the amount of 3H-5FU taken up with a liquid scintillation counter. The percent inhibition to control was calculated.

Colon 26 tumor cells = experiment: Colon 26 percent tumor inhibition, alone and combined with 5-FU derivatives (Test Example 3); assay type: in vivo, BALB/c mice; conditions: for % Inhibition, Combination: test compound 10 mg/kg orally once daily concurrently with 5-FU derivatives (90 mg/kg total); for % Inhibition, Single drug: test compound 10 mg/kg orally once daily, 5-FU derivatives 30 mg/kg each (90 mg/kg total) orally
Procedure: The additive effect of 5-FU derivative and the compound of this invention was tested in terms of percent tumor inhibition. Colon 26 tumor cells were transplanted subcutaneously to groups of 8 BALB/c mice and the treatment was instituted when the tumor volume amounted to about 50-100 mm³. Each of the test com pound was suspended in 0.5% methylcellulose and admin istered orally in a dose of 10 mg/kg once daily for 14 days in (1) and for 21 days in (2) and (3). As 5-FU derivatives Mifurol™, Furtulon™ and Sunfural™ were used, and all the drugs were administered orally in a dose of 30mg/kg, or 90 mg/kg as total dose of three drugs. The combination group received these 5-FU derivatives concurrently with the test drug. The single drug group received each test compound alone orally.

[1] = Anticancer effect in unspecified in vitro test systems (Test Example 6); conditions: in vitro test systems which the inventor used, not described

SMILES | inhibition at 100 µM (MDCK cells) [%] | inhibition at 10 µM (MDCK cells) [%] | inhibition at 1 µM (MDCK cells) [%] | other results
O=C(Nc1nc(NC(=O)c2cccnc2)nc(-c2ccccc2)n1)c1cccnc1 [Compound No. 102, 2,4-Dinicotinoylamino-6-phenyl-1,3,5-triazine] | 62 | 59 | 86 | –
Nc1nc(NC(=O)c2ccccc2)nc(-c2ccccc2)n1 [Compound No. 103, 2-Amino-4-benzoylamino-6-phenyl-1,3,5-triazine] | 50 | 58 | – | –
O=C(Nc1nc(NC(=O)c2ccccc2)nc(-c2ccccc2)n1)c1ccccc1 [Compound No. 104, 2,4-Dibenzoylamino-6-phenyl-1,3,5-triazine] | 44 | 50 | 60 | –
Nc1nc(N)nc(-c2ccc(Cl)c(Cl)c2)n1 [Compound No. 156, 2,4-Diamino-6-(3,4-dichlorophenyl)-1,3,5-triazine] | 56 | 73 | 85 | –
Nc1nc(N)nc(-c2cccc(Cl)c2)n1 [Compound No. 159, 2,4-Diamino-6-(3-chlorophenyl)-1,3,5-triazine] | – | – | – | % Inhibition, Combination (Colon 26 tumor cells; Test (1): 14 days): 50.9%; % Inhibition, Single drug (Colon 26 tumor cells; Test (1): 14 days): 2.0%
COCCOc1ccc(Cl)cc1-c1nc(N)nc(N)n1 [Compound No. 221, 2,4-Diamino-6-[5-chloro-2-(2-methoxyethoxy)phenyl]-1,3,5-triazine] | – | – | – | % Inhibition, Combination (Colon 26 tumor cells; Test (3): 21 days): 76.5%; % Inhibition, Single drug (Colon 26 tumor cells; Test (3): 21 days): 18.1%
COc1ccc(-c2nc(N)nc(N)n2)cc1OC [Compound No. 259, 2,4-Diamino-6-(3,4-dimethoxyphenyl)-1,3,5-triazine] | 62 | 66 | 77 | % Inhibition, Combination (Colon 26 tumor cells; Test (1): 14 days): 45.6%; % Inhibition, Single drug (Colon 26 tumor cells; Test (1): 14 days): 9.2%
Nc1nc(NC(=O)c2cccnc2)nc(-c2cc(Cl)ccc2Cl)n1 [Compound No. 262, 2-Amino-4-nicotinoylamino-6-(2,5-dichlorophenyl)-1,3,5-triazine] | 46 | 58 | – | % Inhibition, Combination (Colon 26 tumor cells; Test (3): 21 days): 48.8%; % Inhibition, Single drug (Colon 26 tumor cells; Test (3): 21 days): 19.2%
Nc1nc(NC(=O)c2cccnc2)nc(-c2ccc(Cl)c(Cl)c2)n1 [Compound No. 263, 2-Amino-4-nicotinoylamino-6-(3,4-dichlorophenyl)-1,3,5-triazine] | – | – | – | % Inhibition, Combination (Colon 26 tumor cells; Test (1): 14 days): 47.9%; % Inhibition, Single drug (Colon 26 tumor cells; Test (1): 14 days): 7.0%; % Inhibition, Combination (Colon 26 tumor cells; Test (3): 21 days): 52.0%; % Inhibition, Single drug (Colon 26 tumor cells; Test (3): 21 days): 8.9%
COc1ccc(-c2nc(N)nc(NC(=O)c3cccnc3)n2)cc1OC [Compound No. 264, 2-Amino-4-nicotinoylamino-6-(3,4-dimethoxyphenyl)-1,3,5-triazine] | 56 | 62 | 89 | –
Nc1nc(N)nc(-c2ccc(OCc3ccccc3)cc2)n1 [Compound No. 345, 2,4-Diamino-6-(4-benzyloxyphenyl)-1,3,5-triazine] | 70 | 63 | 63 | –
CC(=O)c1cccc(-c2nc(N)nc(N)n2)c1 [Compound No. 347, 2,4-Diamino-6-(3-acetylphenyl)-1,3,5-triazine] | 49 | 61 | – | –
Nc1cccc(-c2nc(N)nc(N)n2)c1 [Compound No. 352, 2,4-Diamino-6-(3-aminophenyl)-1,3,5-triazine] | 64 | 69 | – | –
Nc1nc(N)nc(-c2ccccc2NCc2ccccc2)n1 [Compound No. 356, 2,4-Diamino-6-(2-benzylaminophenyl)-1,3,5-triazine] | 51 | 73 | 91 | –
Nc1nc(N)nc(-c2ccc(Br)c(Br)c2)n1 [Compound No. 405, 2,4-Diamino-6-(3,4-dibromophenyl)-1,3,5-triazine] | 62 | 59 | – | –
Nc1nc(N)nc(-c2ccccc2)n1 [compound 100, 2,4-Diamino-6-phenyl-1,3,5-triazine] | – | – | – | anticancer effect in vitro [1]: strong anticancer effect
